Results from US5763249A, “Antibody-mediated reduction of α-ketoamides” (The Regents of the University of California, priority 1991, dated 1998).

Columns and labels:
[1] = molecular target: monoclonal antibody A5, specific for (raised against) the phosphonate hapten 3; assay: Fluorescence quenching binding of inhibitor to antibody A5; settings: from fluorescence quenching experiments; inhibitor of the antibody-catalyzed reaction
Protocol: (§1) Greater than 25 turnovers were measured with no apparent change in Vmax.

[2] = test system: monoclonal antibody A5, specific for (raised against) the phosphonate hapten 3; assay: Antibody A5-catalysed NaBH3CN-dependent reduction of ketoamide 1, steady-state kinetics (HPLC, Lineweaver Burk); assay type: biochemical; settings: substrate ketoamide 1; 13μM antibody, 1mM NaBH3CN, 22° C, 50mM NaCl, 50mM MES buffer, 10% methanol
Protocol: Monoclonal antibodies specific for the phosphonate 3 were purified to homogeneity by chromatography on protein-A coupled sepharose, as determined by polyacrylamide gel electrophoresis. Eight of these antibodies were assayed for their ability to reduce the ketoamide 1 by high performance liquid chromatography (HPLC). The (S)-(--)-α-methylbenzylamine group was incorporated into the ketoacid substrate to facilitate analysis of reaction specificity, it having previously been shown that antibodies specific for the phosphonate 3 are relatively insensitive to substitutions in the aliphatic linker. The ketoamide 1 was prepared by a modification of the method of Westerberg and coworkers (Westerberg, D.A., et aL, J. Med Chem. 1989, 32, 236) for the preparation of 4-nitrophenylpyruvic acid. […]
Consequently, all kinetic parameters were measured in the presence of 13μM antibody, 1mM NaBH3 CN at 22° C in 50mM NaCl, 50mM MES buffer. […] Initial reaction rates were determined by measuring the amounts of 1 and 2 (both diastereomers) relative to a p-cresol internal standard using analytical reverse-phase HPLC (Rainin CYNAMAX MICROSORB C18, a common silica-C18 HPLC column packing, with a continuous phase consisting of 40-80% of TFA/CH3 CN in 0.1% aqueous TFA).
as §1

| Km [2] [µM] | SMILES | Kd [1] [nM] | κcat [2] [min⁻¹] |
| --- | --- | --- | --- |
|  | COP(=O)(O)Oc1ccc([N+](=O)[O-])cc1 [4-nitrophenyl methylphosphate] | 610 |  |
| 1240 | CC(NC(=O)C(=O)Cc1ccc([N+](=O)[O-])cc1)c1ccccc1 (stereo not drawn) [compound 1, 1-(p-nitrobenzyl)-2-(α-methyl-benzylamino)ethanedione] |  | 0.104 |
